Assay results taken from patent publication US20220387403A1, “COMPOUNDS, COMPOSITIONS AND METHODS FOR TREATING NASH, NAFLD, AND OBESITY” (CVI Pharmaceuticals Limited, priority 2019, published 2022).
Like-named read-outs stand apart in the source and are kept apart here.

Legend:
[1] = system: hyperlipidemic rabbits; settings: rabbit, in vivo
[2] = system: hyperlipidemic rabbits; test: Lipid lowering effects and blood chemistry in hyperlipidemic rabbits; settings: for serum total cholesterol level: in mM
[3] = system: HepG2 cells; test: DiI-LDL uptake (LDLR ligand uptake activity) in HepG2 cells; assay type: cell-based, human; settings: for Activity on DiI-LDL uptake: A, compound dose ≤ 10 μM, 20 hours
Description: HepG2 cells (2×10^5 cells/well) in 24-well culture plates were treated with various compounds at indicated concentrations for 20 hours. The fluorescent 1.1′-dioctadecyl-3,3,3′,3′-tetramethylindocarbocyanin perchlorate (DiI-LDL) (Biomedical Technologies, Stoughton, Mass.) at a concentration of 2 μg/mL was added to cells at the end of treatment. After 4 hours, the medium was removed, cells were washed with cold PBS, and were examined immediately under a fluorescent microscope (Nikon) at 200× amplification. The fluorescent intensity in compound-treated cells was compared to that in untreated control cells. […] In these experiments berberine chloride was used for comparison.
The combined beneficial effects of these novel compounds on elevation of LDLR mRNA levels likely through the mechanism of mRNA stabilization and their inhibitory activity towards PCSK9, the secreted protease that degrades LDLR protein, result in strong increases in LDL ligand uptake activity through increased receptor surface abundance. […] Briefly, HepG2 cells (2×10^5 cells/well) in 24-well culture plates were treated with various compounds at 10 and 40 uM concentrations for 20 hours. The fluorescent 1. 1′-dioctadecyl-3,3,3′, 3′-tetramethylindocarbocyanin perchlorate (DiI-LDL) (Biomedical Technologies, Stoughton, Mass.) at a concentration of 2 μg/ml was added to cells at the end of treatment. After 4 hours, the medium was removed; cells were washed with cold PBS, and were examined immediately under a fluorescent microscope (Nikon) at 200× amplification. The fluorescent intensity in compound-treated cells was compared to that in untreated control cells. […]

[4] = system: LDLR mRNA; test: LDLR mRNA expression in HepG2 cells, quantitative real-time RT-PCR; assay type: cell-based, human; settings: 24 hours; for Activity on LDLR mRNA expression (Fold of control): dose less than or equal to 10 μM; for Activity on LDLR mRNA at 40 uM (fold of control) / Activity on LDLR mRNA at 10 uM (fold of control): mean ± s.d.
Description: Activities of some compounds of Formulas I, II, III, and IV on LDLR mRNA expression were determined. HepG2 cells were treated with new compounds individually at a dose less than or equal to 10 μM for 24 hours. Total RNA was harvested for quantitative real-time RT-PCR analysis using the method described in Example 16B. […] In these experiments, berberine chloride was included for comparison. […]
Total RNA was harvested for quantitative real-time RT-PCR analysis using method described in Examples 16B.
The effects of 23 compounds on the mRNA expressions of LDLR and PCSK9 were examined using quantitative real-time RT-PCR assays. HepG2 cells were treated with various compounds at 10 and 40 uM concentrations for 24 hours. Total RNA was isolated and 2 μg was used to generate cDNA in a reaction containing random primers and M-MLV at 37° C. for 1 h in a volume of 25 μl. Real-time PCR was performed on the cDNA using MCEP REALPLEX 2 SYSTEM (Eppendorf) and Universal MasterMix (Applied Biosystems). Human LDLR, PCSK9, and GAPDH Pre-Developed TaqMan Assay Reagents (Applied Biosystems) were used to assess the levels of mRNA expressions in HepG2. The levels of LDLR and PCSK9 mRNA were normalized to that of GAPDH. Each RNA samples was assayed in duplicate. The fold activity was calculated by dividing mRNA abundance in compound treated cells with that of control.

[5] = after 14 days of drug treatment, mean, n = 6
[6] = treatment day 0 (before the drug treatment), mean ± SD, n = 6
[7] = treatment day 4, 128(+)/128(−) 30 mg/kg, SMV/ATV 3 mg/kg once a day oral gavage
[8] = treatment day 7, 128(+)/128(−) 30 mg/kg, SMV/ATV 3 mg/kg once a day oral gavage
[9] = treatment day 10, from day 7 128(+)/128(−) 60 mg/kg, SMV/ATV 10 mg/kg
[10] = treatment day 14, from day 7 128(+)/128(−) 60 mg/kg, SMV/ATV 10 mg/kg
[11] = 40 uM, 20 hours (second symbol of the cell)
[12] = 10 uM, 20 hours (first symbol of the cell)

## CC(C)c1c(C(=O)Nc2ccccc2)c(-c2ccccc2)c(-c2ccc(F)cc2)n1CC[C@@H](O)C[C@@H](O)CC(=O)O [ATV, atorvastatin, reference compound]
[1]
  ALP: 333.5 IU/L
  ALT: 795.6 IU/L
  AST: 767.0 IU/L
  CK: 7270.0 U/L
  CREA: 238.2 µmol/L
  GLU: 6.7 mmol/L
  LDH: 675.0 IU/L
[2]; [5]
  HDL-C: 3.6 mmol/L
  LDL-C: 29.6 mmol/L
  TC: 33.9 mmol/L
  TG: 1.7 mmol/L
[2]; [6]
  serum total cholesterol level: 28.9 ± 6.0
[2]; [7]
  serum total cholesterol level: 26.5 ± 5.2
[2]; [8]
  serum total cholesterol level: 31.5 ± 4.9
[2]; [9]
  serum total cholesterol level: 32.5 ± 4.5
[2]; [10]
  serum total cholesterol level: 33.9 ± 6.5

## COc1ccc2c(c1O)CN1CCc3cc4c(cc3C1C2)OCO4 (centres unmarked) [Compound 34, 10-methoxy-5,6,7,8,13,13a-hexahydro-2H-1,3-dioxolano[4,5-g]isoquinolino[3,2-a]isoqunolin-9-ol]
[3]
  Activity on DiI-LDL uptake: ++
[4]
  Activity on LDLR mRNA expression (Fold of control): 1.76 ± 0.17 Fold of control

## COc1ccc2c(c1OC(=O)NC(C)C)CN1CCc3cc4c(cc3C1C2)OCO4 (centres unmarked) [Compound 41, (10-methoxy(5,6,7,8,13,13a-hexahydro-2H-1,3-dioxolano[4,5-g]isoquinolino[3,2-a]isoquinolin-9-yloxy))-N-(methylethyl)carboxamide]
[3]
  Activity on DiI-LDL uptake: ++
[4]
  Activity on LDLR mRNA expression (Fold of control): 1.60 ± 0.03 Fold of control

## COc1ccc2c(c1OC(=O)N(C)C)CN1CCc3cc4c(cc3C1C2)OCO4 (centres unmarked) [Compound 43, (10-methoxy(5,6,7,8,13,13a-hexahydro-2H-1,3-dioxolano[4,5-g]isoquinolino[3,2-a]isoquinolin-9-yloxy))-N,N-dimethylcarboxamide]
[3]
  Activity on DiI-LDL uptake: ++
[4]
  Activity on LDLR mRNA expression (Fold of control): 1.95 ± 0.18 Fold of control

## COc1ccc2c(c1OC(=O)Nc1ccc(OC(F)(F)F)cc1)CN1CCc3cc4c(cc3C1C2)OCO4 (centres unmarked) [Compound 44, (10-methoxy(5,6,7,8,13,13a-hexahydro-2H-1,3-dioxolano[4,5-g]isoquinolino[3,2-a]isoquinolin-9-yloxy))-N-[4-(trifluoromethoxy)phenyl]carbox-amide]
[3]
  Activity on DiI-LDL uptake: ++
[4]
  Activity on LDLR mRNA expression (Fold of control): 2.20 ± 0.06 Fold of control

## COc1cc(NC(=O)Oc2c(OC)ccc3c2CN2CCc4cc5c(cc4C2C3)OCO5)cc(OC)c1 (centres unmarked) [Compound 45]
[3]
  Activity on DiI-LDL uptake: ++
[4]
  Activity on LDLR mRNA expression (Fold of control): 2.09 ± 0.11 Fold of control

## COc1ccc2c(c1OC(=O)Nc1cccc(C)c1)CN1CCc3cc4c(cc3C1C2)OCO4 (centres unmarked) [Compound 46, (10-methoxy(5,6,7,8,13,13a-hexahydro-2H-1,3-dioxolano[4,5-g]isoquinolino[3,2-a]isoquinolin-9-yloxy))-N-(3-methylphenyl)carboxamide]
[3]
  Activity on DiI-LDL uptake: ++
[4]
  Activity on LDLR mRNA expression (Fold of control): 1.80 ± 0.16 Fold of control

## CCOC(=O)Oc1c(OC)ccc2c1CN1CCc3cc4c(cc3C1C2)OCO4 (centres unmarked) [Compound 48, 10-methoxy-5,6,7,8,13,13a-hexahydro-2H-1,3-dioxolano[4,5-g]isoquinolino[3,2-a]isoquinolin-9-yl ethoxyformate]
[4]
  Activity on LDLR mRNA expression (Fold of control): 1.45 ± 0.15 Fold of control

## COc1ccc2c(c1OC(=O)Nc1ccccc1)CN1CCc3cc4c(cc3C1C2)OCO4 (centres unmarked) [Compound 61, (10-methoxy(5,6,7,8,13,13a-hexahydro-2H-1,3-dioxolano[4,5-g]isoquinolino[3,2-a]isoquinolin-9-yloxy))-N-benzamide]
[4]
  Activity on LDLR mRNA expression (Fold of control): 1.33 ± 0.53 Fold of control

## COc1ccc2c(c1)CCN1Cc3c(ccc(OC)c3OS(=O)(=O)c3ccccc3)CC21 (centres unmarked) [Compound 115, 3,10-Dimethoxy-5,6,7,8,13,13a-hexahydroisoquinolino[2,1-b]isoquinolin-9-yl benzenesulfonate]
[3]; [11]
  Activity in LDL uptake (relative to control): +++
[4]
  Activity on LDLR mRNA at 40 uM (fold of control): 2.65 ± 0.06 fold of control

## COc1ccc2c(c1OS(=O)(=O)c1ccccc1)CN1CCc3cc4c(cc3C1C2)OCCO4 (centres unmarked) [Compound 116, 11-Methoxy-6,7,8,9,14,14a-hexahydro-2H,3H-1,4-dioxano[5,6-g]isoquinolino[3,2-a]isoquinolin-10-yl benzenesulfonate]
[3]; [12]
  Activity in LDL uptake (relative to control): +++/+++
[3]; [11]
  Activity in LDL uptake (relative to control): +++/+++

## COc1ccc2c(c1OS(=O)(=O)c1ccccc1)CN1CCc3cc(C)ccc3C1C2 (centres unmarked) [Compound 121, 10-Methoxy-3-methyl-5,6,7,8,13,13a-hexahydroisoquinolino[2,1-b]isoquinolin-9-yl benzenesulfonate]
[4]
  Activity on LDLR mRNA at 10 uM (fold of control): 3.56 ± 0.03 fold of control
  Activity on LDLR mRNA at 40 uM (fold of control): 3.43 ± 0.81 fold of control

## COc1cc2c(cc1OC)C1C(C)c3ccc(OC)c(OS(=O)(=O)c4ccccc4)c3CN1CC2 (centres unmarked) [Compound 139, 2,3,10-Trimethoxy-13-methyl-5,6,7,8,13,13a-hexahydro-isoquinolino[2,1-b]isoquinolin-9-yl benzensulfonate]
[4]
  Activity on LDLR mRNA at 10 uM (fold of control): 11.5 ± 1.29 fold of control
  Activity on LDLR mRNA at 40 uM (fold of control): 3.02 ± 0.34 fold of control

## COc1ccc2c(c1)CCN1Cc3c(ccc(OC)c3OS(=O)(=O)c3ccccc3)C(C)C21 (centres unmarked) [Compound 140, 3,10-Dimethoxy-13-methyl-5,6,7,8,13,13a-hexahydro-isoquinolino[2,1-b]isoquinolin-9-yl benzenesulfonate]
[4]
  Activity on LDLR mRNA at 10 uM (fold of control): 6.65 ± 0.68 fold of control

## COc1ccc2c(c1)CCN1Cc3c(cccc3OS(=O)(=O)c3cccc(F)c3)CC21 (centres unmarked) [Compound 150, 3-methoxy-5,6,7,8,13,13a-hexahydroisoquinolino[2,1-b]isoquinolin-9-yl 3-fluorobenzenesulfonate]
[3]; [12]
  Activity in LDL uptake (relative to control): +/+
[3]; [11]
  Activity in LDL uptake (relative to control): +/+

## CCC(C)(C)C(=O)O[C@H]1C[C@@H](C)C=C2C=C[C@H](C)[C@H](CC[C@@H]3C[C@@H](O)CC(=O)O3)[C@H]21 [SMV, simvastatin, reference compound]
[1]
  CK: 6492.8 U/L
  GLU: 7.9 mmol/L
[2]; [5]
  ALP: 288.7 IU/L
  CREA: 242.2 µmol/L
  HDL-C: 2.9 mmol/L
  LDH: 530.3 IU/L
  LDL-C: 23.3 mmol/L
  TC: 26.2 mmol/L
  TG: 1.7 mmol/L
[2]; [6]
  serum total cholesterol level: 28.8 ± 7.4
[2]; [7]
  serum total cholesterol level: 24.8 ± 6.1
[2]; [8]
  serum total cholesterol level: 26.1 ± 4.4
[2]; [9]
  serum total cholesterol level: 25.4 ± 6.1
[2]; [10]
  serum total cholesterol level: 26.2 ± 5.5

## CN1CCc2cc3c(cc2[C@H]1[C@@H]1O[C@H](O)c2c1ccc1c2OCO1)OCO3 [d-(+)-EGN, (+)-egenine]
[3]
  Activity on DiI-LDL uptake: +
